# Measurements published in patent publication US20240207288A1, “METHODS OF TREATING ESOPHAGEAL STRICTURES” (Ellodi Pharmaceuticals, L.P., priority 2021, published 2024).
# Read-outs that look alike come from different tables or passages of the source.
# Assays:
# [1] = system: subjects with strictures and/or rings and EoE; test: Clinical trial of FP ODT: dysphagia episodes (symptom response); type: in vivo, human; conditions: subgroup with strictures and/or Grade 2 rings at baseline, Week 12
# Description: (§1) A clinical trial was performed to evaluate the effect of an orally disintegrating tablet (“ODT”) comprising fluticasone propionate (FP). A randomised, double-blind, placebo-controlled, multicentre, dose-ranging, and maintenance study of FP in subjects (>18 and <75 years of age) with strictures and/or rings and EoE. The trial examined four doses of FP to define the exposure-response of FP and the minimum effective dose to minimize significant hypothalamic-pituitary-adrenal (HPA) axis effects. The study (as shown in FIG. 1) was designed as follows. • (a) Screening: Patients with a confirmed diagnosis or presumptive diagnosis of EoE (including identifying strictures and/or rings) were selected for the study. An EoE diagnosis was confirmed by symptoms, histology, and historical documentation of failed treatment on >8 weeks of high-dose proton pump inhibitor (PPI). A high-dose PPI was defined as administration of a total dose of 20 to 40 mg of a marketed PPI once or twice daily.
# Subjects that participated in Part 1 studies were randomized and administered a treatment selected from: • (a) 1.5 mg HS: Placebo 30 minutes after breakfast and 1.5 mg HS (at bedtime); • (b) 1.5 mg BID: 1.5 mg 30 minutes after breakfast and at bedtime; total daily dose of 3 mg; • (c) 3 mg HS: Placebo 30 minutes after breakfast and 3 mg at bedtime; and • (d) 3 mg BID: 3.0 mg 30 minutes after breakfast and at bedtime; total daily dose of 6 mg. […]
# [2] = system: subjects with EoE (safety analysis set); test: Clinical trial of FP ODT: treatment-emergent adverse events; type: in vivo, human
# Description: (§2) Subjects that participated in Part 1 studies were randomized and administered a treatment selected from: • (a) 1.5 mg HS: Placebo 30 minutes after breakfast and 1.5 mg HS (at bedtime); • (b) 1.5 mg BID: 1.5 mg 30 minutes after breakfast and at bedtime; total daily dose of 3 mg; • (c) 3 mg HS: Placebo 30 minutes after breakfast and 3 mg at bedtime; and • (d) 3 mg BID: 3.0 mg 30 minutes after breakfast and at bedtime; total daily dose of 6 mg.
# Patient Population: 105 subjects received at least 1 dose of study drug in Part 1 of the study safety analysis set (SAF population), and 92 subjects ([…]) of those subjects completed Week 14. […] Subjects were classified according to their randomized treatment.
# Safety endpoints were measured such as Frequency of treatment-emergent adverse event (TEAEs); TEAEs leading to discontinuation; Treatment-emergent serious adverse events (SAEs); Percentage of subjects with serum cortisol level ≤5 μg/dL (≤138 nmol/L) or abnormal adrenocorticotropic hormone (ACTH) stimulation test (serum cortisol <16 μg/dL [≤440 nmol/L] at 60 minutes); The number of subjects discontinuing for HPA axis suppression will be recorded; and frequency of oral and esophageal candidiasis.
# [3] = cited from earlier work
# [4] = system: subjects with strictures and/or rings and EoE; test: Clinical trial of FP ODT: histologic response (peak eosinophils/HPF in oesophageal biopsies); type: in vivo, human; conditions: subgroup with strictures and/or Grade 2 rings at baseline, Week 12
# Description: as §1, §2
# During Part 1 (Induction, Day 1 to Week 14), subjects received their randomized treatment for 14 weeks. At Week 12, the subjects underwent a response assessment, including an oesophagogastroduodenoscopy (EGD) to assess endoscopic and histologic status. Histologic responders and non-responders (at Week 12) entered Part 2.
# The primary endpoint was the histologic responder rate at Week 12 of Part 1, […] 5 to 6 biopsies from the proximal and distal oesophagus (approximately 3 each) where the HPF area was […] (40 magnification lens with a 22 mm ocular).
# [5] = all FP dosing groups, TOTAL (n = 43)
substance,measurement,setting,value
"S-(fluoromethyl)-6α,9-difluoro-11β, 17-dihydroxy-16α-methyl-3-oxoandrosta-1, 4-diene-17β-carbothioate, 17-propanoate [FP]","Symptoms Responder Rate (≤50% reduction dysphagia episodes), %",[1]; FP 1.5 mg BID (n = 12),42%
same,"Symptoms Responder Rate (≤50% reduction dysphagia episodes), %",[1]; FP 1.5 mg HS (n = 13),77%
same,"Symptoms Responder Rate (≤50% reduction dysphagia episodes), %",[1]; FP 3 mg BID (n = 7),57%
same,"Symptoms Responder Rate (≤50% reduction dysphagia episodes), %",[1]; FP 3 mg HS (n = 11),73%
same,"Symptoms Responder Rate (≤50% reduction dysphagia episodes), %",[1]; [5],63%
same,"At least 1 TEAE, (%)",[2]; FP 1.5 mg BID (n = 23),(74) %
same,"Maximum severity of TEAE: Mild, (%)",[2]; FP 1.5 mg BID (n = 23),(61) %
same,"Maximum severity of TEAE: Moderate, (%)",[2]; FP 1.5 mg BID (n = 23),(13) %
same,"TEAE leading to study discontinuation, (%)",[2]; FP 1.5 mg BID (n = 23),(9) %
same,"TEAE of special interest, (%)",[2]; FP 1.5 mg BID (n = 23),(13) %
same,"TEAE related to study drug, (%)",[2]; FP 1.5 mg BID (n = 23),(22) %
same,"At least 1 TEAE, (%)",[2]; FP 1.5 mg HS (n = 21),(62) %
same,"Maximum severity of TEAE: Mild, (%)",[2]; FP 1.5 mg HS (n = 21),(52) %
same,"Maximum severity of TEAE: Moderate, (%)",[2]; FP 1.5 mg HS (n = 21),(5) %
same,"Maximum severity of TEAE: Severe, (%)",[2]; FP 1.5 mg HS (n = 21),(5) %
same,"TEAE related to study drug, (%)",[2]; FP 1.5 mg HS (n = 21),(10) %
same,"At least 1 TEAE, (%)",[2]; FP 3 mg BID (n = 20),(85) %
same,"Maximum severity of TEAE: Mild, (%)",[2]; FP 3 mg BID (n = 20),(60) %
same,"Maximum severity of TEAE: Moderate, (%)",[2]; FP 3 mg BID (n = 20),(25) %
same,"TEAE leading to study discontinuation, (%)",[2]; FP 3 mg BID (n = 20),(5) %
same,"TEAE of special interest, (%)",[2]; FP 3 mg BID (n = 20),(35) %
same,"TEAE related to study drug, (%)",[2]; FP 3 mg BID (n = 20),(50) %
same,"At least 1 TEAE, (%)",[2]; FP 3 mg HS (n = 21),(76) %
same,"Maximum severity of TEAE: Mild, (%)",[2]; FP 3 mg HS (n = 21),(29) %
same,"Maximum severity of TEAE: Moderate, (%)",[2]; FP 3 mg HS (n = 21),(43) %
same,"Maximum severity of TEAE: Severe, (%)",[2]; FP 3 mg HS (n = 21),(5) %
same,"Serious TEAE, (%)",[2]; FP 3 mg HS (n = 21),(5) %
same,"TEAE of special interest, (%)",[2]; FP 3 mg HS (n = 21),(5) %
same,"TEAE related to study drug, (%)",[2]; FP 3 mg HS (n = 21),(29) %
same,"At least 1 TEAE, (%)",[2]; Total FP (n = 85),74%
same,"Maximum severity of TEAE: Mild, (%)",[2]; Total FP (n = 85),51%
same,"Maximum severity of TEAE: Moderate, (%)",[2]; Total FP (n = 85),21%
same,"Maximum severity of TEAE: Severe, (%)",[2]; Total FP (n = 85),2 (2) %
same,"Serious TEAE, (%)",[2]; Total FP (n = 85),1 (1) %
same,"TEAE leading to study discontinuation, (%)",[2]; Total FP (n = 85),4%
same,"TEAE of special interest, (%)",[2]; Total FP (n = 85),13%
same,"TEAE related to study drug, (%)",[2]; Total FP (n = 85),25%
same,Solubility,"[3]; acetone, dichloromethane, ethyl acetate and chloroform",sparingly soluble
same,Solubility,[3]; dimethyl sulfoxide and dimethylformamide,freely soluble
same,Solubility,[3]; methanol and 95% ethanol,slightly soluble
same,Solubility,[3]; water,practically insoluble
same,"Histology Responder Rate, %",[4]; FP 1.5 mg BID (n = 12),100%
same,"Histology Responder Rate, %",[4]; FP 1.5 mg HS (n = 13),54%
same,"Histology Responder Rate, %",[4]; FP 3 mg BID (n = 7),86%
same,"Histology Responder Rate, %",[4]; FP 3 mg HS (n = 11),82%
same,"Histology Responder Rate, %",[4]; [5],79%
